From patent EP2423181A1, “Multitarget substituted biphenyl diol derivatives” (PROUS INSTITUTE FOR BIOMEDICAL RESEARCH S.A., priority 2010, dated 2012)
pIC50: −log10 of the molar value. Where a name gives a salt, the structure may show the parent alone. Read-outs that look alike come from different tables or passages of the source.

What was measured:
mice = assay: Formalin test (antinociceptive activity); assay type: in vivo; settings: for Early Response / Late Response: formalin test, dose 10-30 mg/Kg i.p.; for Early Response: early response 0-5 min; for Late Response: late response 20-30 min
Method: The chemical irritant formalin test is used as a chronic pain model in animals. The s.c. administration of formalin to the paw of a mouse produces a biphasic nociceptive behavioral response, an early response (0-5 min after injection) and a late response (20-30 min after injection) (Hunskaar, S., Fasmer, O.B., Hole, K. Formalin test in mice, a useful technique for evaluating mild analgesics. J Neurosci Methods, 1985 ;14(1):69-76).
Aspirine and paracetamol are included as external active references in early and late response. Table 12. Early and late response inhibition in the formalin test.

tumor prostate LNCaP-FGC = assay: Tumor cell proliferation assay (alamarBlue); assay type: cell-based; settings: Homo sapiens
In short: (§1)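 Human or murine tumor cells were exposed to test substances at assay concentrations from 0.01 to 100 µM. Proliferation was then quantified through conversion of alamarBlue to its fluorescent reduced form by viable cells.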

tumor lung A549 = assay: Tumor cell proliferation assay (alamarBlue); assay type: cell-based; settings: Homo sapiens
In short: as §1

tumor liver HepG2 = assay: Tumor cell proliferation assay (alamarBlue); assay type: cell-based; settings: Homo sapiens
In short: as §1

tumor melanoma B16-FO = assay: Tumor cell proliferation assay (alamarBlue); assay type: cell-based, murine; settings: Mus musculus
Method: Changes in cell proliferation were detected based on the ability of viable cells to cause alamarBlue® to change its oxidized (non-fluorescent, blue) to a reduced (fluorescent, red) form. The alamarBlue® reaction allows the quantification of cell proliferation and examination of the metabolic activity of viable cells. Test substances were examined for activity on the proliferation of human or murine tumor cell lines at assay concentrations from 0.01 to 100 µM.

[1] = biological target: T1, Gonadotrophin-releasing hormone receptors (GnRH, LH-RH)R (Homo sapiens, UniProt P30968); assay: GnRH radioligand binding assay; settings: read-out: % Inhibition at 10 µM
T1 construct: expressed in transfected cells; host or cells: Chem-1 cells
T1 sequence (P30968 1-328): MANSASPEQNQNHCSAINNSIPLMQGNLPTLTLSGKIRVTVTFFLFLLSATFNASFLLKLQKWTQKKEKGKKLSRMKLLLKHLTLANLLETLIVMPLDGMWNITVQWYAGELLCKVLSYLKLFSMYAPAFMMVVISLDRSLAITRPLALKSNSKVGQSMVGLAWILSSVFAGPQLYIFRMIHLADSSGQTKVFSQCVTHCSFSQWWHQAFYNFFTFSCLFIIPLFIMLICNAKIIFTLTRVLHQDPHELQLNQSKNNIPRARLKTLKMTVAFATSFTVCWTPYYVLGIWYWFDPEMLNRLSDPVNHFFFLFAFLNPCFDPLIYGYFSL
Source text: Gonadotrophin-releasing hormone receptors (GnRH, LH-RH)R are a family of G protein-coupled receptors for GnRH, which promotes the secretion of luteinizing hormone (LH) and follicle-stimulating hormone (FSH). The activation of this receptor promotes, through estrogen receptors (ER) located in the cytosol, an increase in gene transcription and activation of tumor suppressor genes, DNA repair, cell division and cell proliferation. GnRH agonists are useful in breast, prostate and ovarian cancer, endometriosis, melanoma, rheumatoid arthritis and Alzheimer's disease. Table 17 presents the results from radioligand binding studies for GnRH for selected compounds using human recombinant Chem-1 cells (Halmos G, Schally AV, Pinski J, Vadillo-Buenfill M, Groot K. Down regulation of pituitary receptors for luteinizing hormone-releasing hormone (LH-RH) in rats by LH-RH antagonist Cetrorelix. Prco Natl Acad Sci USA 1996;93(6):2398-2402). The specific and non specific ligands used were [^125l] [D-Trp^6]-LH-RH (0.05 nM) and [D-Trp^6]-LH-RH ([…]) and after 60 min of incubation at 25°C in a 50 mM HEPES, pH 7.5, 5 mM MgCl2, 1 mM CaCl2, and 0.2% BSA the activity was measured by radioligand binding. Table 17. GnRH radioligand binding assay

[2] = Maximum Tolerated Dose after acute administration; settings: mouse, in vivo, ip, mice
Method: The Maximum Tolerated Dose (MTD) in mice was determined for selected compounds. The protocol of the studies was in accordance with the standard guidelines for drug development: • (htp://dtp.nci.nih.gov/branches/btb/acute tox.html). Table 10. Maximum Tolerated Doses in mice after acute i.p. administration

Akt3 (PRKBG) = biological target: T2, Akt3 (PRKBG) (Homo sapiens, UniProt Q9Y243); assay: Akt3 kinase inhibition ([32P]Crosstide KK); assay type: biochemical
T2 construct: host or cells: insect cells
T2 sequence (Q9Y243 whole entry): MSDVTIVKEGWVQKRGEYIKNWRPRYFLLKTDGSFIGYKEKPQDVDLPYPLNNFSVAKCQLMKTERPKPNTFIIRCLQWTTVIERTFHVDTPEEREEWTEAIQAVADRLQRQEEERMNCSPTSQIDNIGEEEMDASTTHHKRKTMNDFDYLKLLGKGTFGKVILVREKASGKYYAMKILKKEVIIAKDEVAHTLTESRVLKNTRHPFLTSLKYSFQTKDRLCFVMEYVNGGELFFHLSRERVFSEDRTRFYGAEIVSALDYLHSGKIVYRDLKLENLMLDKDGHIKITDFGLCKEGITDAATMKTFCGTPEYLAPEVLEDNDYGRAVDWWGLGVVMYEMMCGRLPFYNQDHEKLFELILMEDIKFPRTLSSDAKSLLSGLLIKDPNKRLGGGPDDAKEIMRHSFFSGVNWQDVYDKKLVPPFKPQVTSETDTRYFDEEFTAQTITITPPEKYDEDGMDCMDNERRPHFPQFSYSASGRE
Method: Akt3 activity was obtained in human recombinant insect cells using Crosstide KK 10 µM as a substrate. The incubation buffer was 20 mM MOPS, pH 7.2, 25 mM β-Glycerophosphate, 1 mM DTT, 5 mM EGTA, 20 mM MgCl2, 1 mM Na3VO4 and the preincubation and incubation times 15 and 30 min, respectively, at 37°C. The quantification of inhibition was assessed by the measure of [^32P]Crosstide KK (Laine, J. Et al. J Biol Chem 2002, 277(5), 3743-3751). Table 6. Inhibition of Akt3 (PRKBG) at 10 µM

[3] = log D octanol/water distribution coefficient; assay type: physicochemical
Source text: Lipophilicity has been correlated to various drug properties, affecting permeability, absorption, distribution, plasma protein binding, metabolism, elimination, and toxicity. In contrast to honokiol and magnolol, compounds claimed in the invention, and more particularly those wherein the nitrogen atom in the group -O-CH(phenyl)-(CH2)p-NH-R^3 is protonated and the compound further comprises a pharmaceutically acceptable counter-anion present an optimal log Doctanol/water (range 0-3), indicating good aqueous solubility, permeability, oral absorption, and blood-brain barrier penetration. Experimental studies in murine models have confirmed the results.
Absorption, distribution and metabolism studies in vitro with selected examples were performed in order to determine pharmacokinetic parameters such as permeability (or absorption constant), intrinsic clearance (or metabolic clearance), and bioavailability. Physicochemical properties such as water solubility, pKa, log P, and log Doctanol/water, and in vitro experimental studies such as permeability in Caco2 cells, and protein binding in the mouse, stability in murine microsomes, chemical stability at different pH and stability in plasma were evaluated for the pharmacokinetic prediction in mice.

Src = biological target: T3, Src (Homo sapiens, UniProt P12931); assay: Src protein tyrosine kinase inhibition (ELISA of Poly[Glu:Tyr-P]); assay type: biochemical
T3 construct: host or cells: Sf9 insect cells
T3 sequence (P12931 whole entry): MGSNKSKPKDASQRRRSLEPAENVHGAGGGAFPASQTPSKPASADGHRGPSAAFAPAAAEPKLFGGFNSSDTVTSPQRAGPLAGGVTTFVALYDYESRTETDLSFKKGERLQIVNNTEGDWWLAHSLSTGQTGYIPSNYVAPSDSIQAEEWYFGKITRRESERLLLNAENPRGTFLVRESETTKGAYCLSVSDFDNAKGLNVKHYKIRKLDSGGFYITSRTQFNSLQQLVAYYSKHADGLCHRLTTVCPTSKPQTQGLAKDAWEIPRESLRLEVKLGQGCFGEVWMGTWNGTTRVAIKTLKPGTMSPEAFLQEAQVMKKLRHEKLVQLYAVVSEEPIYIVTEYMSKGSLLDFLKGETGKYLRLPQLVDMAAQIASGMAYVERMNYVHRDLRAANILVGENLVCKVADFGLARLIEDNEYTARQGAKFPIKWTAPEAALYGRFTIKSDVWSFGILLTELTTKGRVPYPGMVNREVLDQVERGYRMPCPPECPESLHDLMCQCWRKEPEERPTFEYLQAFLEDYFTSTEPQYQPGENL
Method: Src protein tyrosine kinase activity was assessed in human recombinant insect Sf9 cells using as a substrate Poly(Glu:Tyr) at 10 µg/mL with preincubation and incubation times of 15 and 5 min, respectively, at 22°C in 50 mM HEPES, pH 7.4, 1 mM DTT, 20 mM MgCl2 and 0.2 mM Na3VO4. An ELISA quantitation method of Poly[Glu:Tyr-P] was employed (Farley, K et al. Anal Biochem, 1992, 203, 151-157). Table 4. Inhibition of Src at 10 µM

[4] = tumor prostate LNCaP-FGC, read-out: IC50
[5] = tumor lung A549, read-out: IC50
[6] = tumor liver HepG2, read-out: IC50
[7] = tumor melanoma B16-FO, read-out: IC50

Row | Structure (SMILES) | Early Response (mice) | Late Response (mice) | pIC50 (tumor prostate LNCaP-FGC) | pIC50 (tumor lung A549; A549) | pIC50 (tumor liver HepG2; HepG2) | pIC50 (tumor melanoma B16-FO) | inhibition at 10 µM [1] [%] | MTD [2] [mg/kg] | inhibition at 10 µM (Akt3 (PRKBG)) [%] | logDoctanol/water [3] | inhibition at 10 µM (Src) [%] | antinociceptive activity in the formalin test (mice; 30 mg/kg i.p, early and late phases, potency similar to morphine 10 mg/kg i.p.) | pIC50 (tumor prostate LNCaP-FGC; [4]) | pIC50 (tumor lung A549; [5]) | pIC50 (tumor liver HepG2; [6]) | pIC50 (tumor melanoma B16-FO; [7]) | inhibition at 10 µM ([1]; GnRH radioligand binding, 10 µM) [%] | inhibition at 10 µM (Akt3 (PRKBG); Akt3 (PRKBG), at 10 µM, read-out: % Inhibition) [%] | inhibition at 10 µM (Src; Src, at 10 µM, read-out: % Inhibition) [%]
1 | C=CCc1ccc(O)c(-c2ccc(OC(CCNC)c3ccccc3)c(CC=C)c2)c1 (stereo not shown) [Example 5, 3',5-Diallvl-4'-13-(methylamino)-1-phenylpropoxy]biphenyl-2-ol hydrochloride] | slightly active | Active | 5.82 | 5.92 | 6.00 | 5.80 | 37 | 25 | 101 | 0.85 | > 100 |  |  |  |  |  |  |  | 
2 | C=CCc1ccc(O)c(-c2cc(CC=C)ccc2OC(CCNC)c2ccccc2)c1.Cl (stereo not shown) [Example 1, 5,5'-Diallyl-2'-[3-(methylamino)-1-phenylpropoxy]biphenyl-2-ol hydrochloride] | slightly active | active |  |  |  |  |  | 25 |  | 1.31 |  | relevant antinociceptive activity | 4.89 | 5.30 | 5.85 | 5.72 | 50 | 99 | 99
3 | C=CCc1ccc(O)c(-c2ccc(O)c(CC=C)c2)c1 [Honokiol, reference compound] |  |  |  |  |  |  |  |  |  | 5.25 |  |  | 4.80 | 4.92 | 4.92 | 4.52 |  |  | 
